Measurements reported in PubChem BioAssay (NCI).
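Growth conditions: 96-well plates. Treatment: test compound, 48 hours, 5 concentrations. Analysis: linear interpolation between bracketing concentrations; unreached endpoints set to highest concentration. GI50: concentration for 50% inhibition of growth. At the TGI there is no net growth.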

Columns and labels:
Experiment in all cases: inhibition of tumour cell growth, NCI panel, 48 h
UACC-257 melanoma = system: UACC-257 melanoma
MCF7 breast = system: MCF7 breast
KM12 colon = system: KM12 colon
RPMI-8226 leukemia = system: RPMI-8226 leukemia
CCRF-CEM leukemia = system: CCRF-CEM leukemia
OVCAR-3 ovarian = system: OVCAR-3 ovarian
NCI-H522 lung = system: NCI-H522 lung
HOP-62 NSCLC = system: HOP-62 NSCLC
DU-145 prostate = system: DU-145 prostate
SNB-19 CNS = system: SNB-19 CNS

Compound	TGI (UACC-257 melanoma)	TGI (MCF7 breast)	TGI (KM12 colon)	TGI (RPMI-8226 leukemia)	TGI (CCRF-CEM leukemia)	TGI (OVCAR-3 ovarian)	TGI (NCI-H522 lung)	TGI (HOP-62 NSCLC)	TGI (DU-145 prostate)	TGI (SNB-19 CNS)	GI50 (MCF7 breast)	GI50 (SNB-19 CNS)	GI50 (OVCAR-3 ovarian)	GI50 (HOP-62 NSCLC)	GI50 (DU-145 prostate)
COc1cc(Oc2nc3ccc(C(F)(F)F)cc3nc2-c2ccccc2)cc(OC)c1OC	> 100 µM	> 100 µM	> 100 µM	> 100 µM	> 100 µM	97.1 µM	> 100 µM	44.4 µM	> 100 µM						
O=C1N[C@@H]2C(=C[C@H](O)[C@@H](O)[C@H]2O)c2cc3c(c(O)c21)OCO3	0.088 µM		0.405 µM	0.0858 µM	0.51 µM	0.0639 µM		0.0538 µM		0.0665 µM					
C=C(C)[C@@H]1CC[C@]2(C(=O)OC)CC[C@]3(C)[C@H](CC[C@@H]4[C@@]5(C)CC[C@H](O)C(C)(C)[C@@H]5CC[C@]43C)[C@@H]12	38.3 µM	41.6 µM	> 100 µM		48.9 µM	40.1 µM	40.6 µM	41.3 µM	> 100 µM	39.5 µM					
COc1cccc(C2c3cc4c(cc3OC3COC(=O)C32)OCO4)c1OC (stereo not drawn)	> 100 µM	> 100 µM	> 100 µM		> 100 µM	> 100 µM		> 100 µM	> 100 µM	> 100 µM					
CSc1c(C#N)c(N)n(-c2ccc(Cl)cc2)c(=O)c1C#N	> 100 µM	> 100 µM	> 100 µM	> 100 µM		> 100 µM	> 100 µM		> 100 µM	> 100 µM					
CCOC(=O)c1c[nH]c2ccc3c(c2c1=O)S(=O)(=O)CC3 (tested in a mixture with another compound)	> 100 µM	> 100 µM	> 100 µM	> 100 µM	> 100 µM	> 100 µM	> 100 µM	> 100 µM		> 100 µM					
CN(C)CCc1c2c(nc3ccccc13)C(=O)c1cccnc1C2=O	1.03 µM	1.59 µM	1.38 µM	1.82 µM	4.85 µM	1.34 µM	0.654 µM		1.22 µM	3.88 µM					
CCCn1c(=O)c(N2CCN(c3ccccc3)CC2)nc2sc3ccccc3c21	> 100 µM	> 100 µM	> 100 µM		> 100 µM	> 100 µM	> 100 µM	> 100 µM	> 100 µM	> 100 µM					
O=c1[nH]c(Nc2nc3ccccc3[nH]2)nc(O)c1Cc1ccccc1	> 100 µM		> 100 µM	> 100 µM	> 100 µM		> 100 µM		> 100 µM	> 100 µM					
COc1cc(O)c2c(=O)c(OC)c(-c3ccc(OC)c(OC)c3)oc2c1	> 100 µM	> 100 µM		> 100 µM	> 100 µM	> 100 µM	15 µM	> 100 µM	> 100 µM	> 100 µM	45.8 µM	> 100 µM	> 100 µM	58.5 µM	> 100 µM
CN1CCN(c2ccc3c(c2)NCC(=O)N3)CC1	> 100 µM		> 100 µM	> 100 µM	> 100 µM	> 100 µM	> 100 µM	> 100 µM	> 100 µM	> 100 µM					
CN1CCN(P2(=S)Oc3ccc4ccccc4c3-c3c(ccc4ccccc34)O2)CC1	> 91.4 µM	> 81.2 µM	51.1 µM	43.1 µM	> 100 µM	> 100 µM	64 µM	> 78.9 µM		> 100 µM					
Cn1c(=O)n2n(c1=O)C(C)(C13CC4CC(CC(C4)C1)C3)C13CC4CC(CC1C4)CC23 (stereo not drawn)	> 100 µM	> 100 µM	> 100 µM	> 100 µM	> 100 µM	> 100 µM		> 100 µM	> 100 µM	> 100 µM					
O=C(O)c1ccccc1N=Nc1c(O)c(S(=O)(=O)O)cc2cc(S(=O)(=O)O)ccc12	> 100 µM	> 100 µM	> 100 µM	> 100 µM	> 100 µM	> 100 µM		> 100 µM	> 100 µM	> 100 µM					
O=C1Cc2c([nH]c3ccc(C(=O)O)cc23)-c2ccccc2N1	> 100 µM	> 100 µM	> 100 µM	> 100 µM	> 100 µM	> 100 µM		> 100 µM	> 100 µM	> 100 µM					
OC(c1cccnc1Cl)c1nc2ccccc2c2ccnc(Cl)c12 (stereo not drawn)	> 100 µM	> 100 µM	> 100 µM	8.57 µM		> 100 µM	5.92 µM	15.3 µM	> 100 µM	> 100 µM					
